According to article PMC9731497, “Identification of potent anti-Cryptosporidium new drug leads by screening traditional Chinese medicines” (PLOS Neglected Tropical Diseases, 2022):
Values joined by “and” are separate entries in the source; they are usually repeats but may differ in a detail not shown here. Equal entries are not always repeated. Where two headings read alike, the source gives them in different places.

Tests used:
[1] = Host cell viability assay (Cell-Titer Glo); conditions: human
Protocol: (§2) HCT-8 cells (4 × 10^4 cells/well) 100 μl were seeded in 96-well plates, cultured for 24 h, and then treated for 48 h with different concentrations of hit compounds (10^1, 1, 10^−1, 10^−2, 10^−3, 10^−4 μM). After a 48-h incubation period, equilibrate the 96-well plates in room temperature (RT) for 30 minutes. Then, equal volume of Cell-Titer Glo (Promega) reagent was added to each treated well, the plate was shaken on an orbital shaker for 2 minutes then incubated for 10 minutes at RT. The luminescence was quantified by the GloMax Navigator plate reader (Promega, Japan) and the cell viability was evaluated as directed by the kit manufacturer. The luminescence signal of control wells containing DMSO was set to 100% cell viability. […] Graph Pad Prism 7.0.1 was used to determine CC50 values.

HCT-8 cells = test: Host cell viability assay (Cell-Titer Glo); conditions: HCT-8 cells, 48 h, 1 μM
Protocol: as §2

C. parvum HNJ-1 strain [2] = test: In vivo C. parvum growth inhibition assay (oocyst shedding in feces of infected SCID mice, sugar flotation); set-up: species or system Cryptosporidium parvum; conditions: 11 days; for No. of oocysts, Mean: SCID mice n=3, mean of days 3, 6, 7, 9, 12, 14; for % reduction in oocyst shedding: SCID mice n=3, vs untreated infected control
[3] = initial dose-finding doses, 11 consecutive days (S1 Fig)
Protocol: The growth inhibitory effect of the hit compounds was assessed in a mouse model infected with C. parvum oocysts. In this experiment, four-week-old female SCID mice (Charles River Laboratories, Shizuoka, Japan) were used. In the infected groups, mice were orally inoculated with 1.0 × 10^5 C. parvum oocysts by using sterile gavage needles. Initially, four compounds were tested at different concentrations to figure out the optimum dosages. Six groups of mice were given oral dosages of 50, 25, and 12.5 mg/kg body weight (BW) of two compounds (alisol-A and alisol-B). […] Bufotalin was given orally at three different doses to the other mouse group: 0.1, 0.05, and 0.025 mg/kg BW. […] The positive control group consisted of infected and untreated mice, whereas the negative control group consisted of noninfected and untreated mice. Treatment began on the third day after infection and lasted until the thirteenth day. The body weight and condition were checked every day, and treatment was given based on the body weight. On days 1, 3, 6, 7, 9, 12, 14, fecal samples were taken. The total number of oocysts per gram was calculated after counting the oocysts in the feces using the sugar flotation method. The treated and untreated mice were euthanized by cervical dislocation on day 14, and a thorough necropsy was performed.

[4] = Liver histology (sub-effects of drugs, hepatocellular damage) in treated mice; type: in vivo, SCID mice
Protocol: (§1) We performed a histopathological analysis to evaluate the growth inhibitory effects and toxicity of the hit compounds in C. parvum-infected mice. In brief, ileum was collected, fixed in 10% neutral buffered formalin, and paraffin-embedded. Each section was cut to a thickness of 4 μm for hematoxylin and eosin (HE) staining and immunohistochemistry. Immunohistochemistry (IHC) was performed following standard techniques using the Envision+ system (Agilent Technologies, Inc., Santa Clara, CA) and 3,3-diaminobenzidine (DAB)(Dojindo, Kumamoto, Japan). Anti-Toxoplasma gondii (RH strain) rabbit polyclonal IgG (Abcam, Cambridge, UK) was used as the primary antibody. The antibody cross reacts with C. Parvum. To reduce the endogenous peroxidase activity, the sections were incubated with 3% H2O2 for 5 minutes. Sections were incubated with primary antibodies overnight at 4°C. After washing with PBS with Tween 20 (PBST), sections were incubated with Envision+ single polymer solution (Agilent Technologies Inc.) for 30 minutes at room temperature. Sections were counterstained with Mayer’s hematoxylin. The severity of C. parvum infection was evaluated in the most severe area, and scored from—to 3+ (-, no oocysts; 1+, mild focal infection; 2+, moderate multifocal infection; 3+, severe diffuse infection). Sub-effects of drugs (hepatocellular damage) were evaluated for major histological changes in karyomegaly, hepatocellular hypertrophy, and interstitial fibrosis/inflammation. We also checked the organs (liver, heart, lung, kidney, and intestines) alteration at necropsy whether it has abnormal or normal.

C. parvum HNJ-1 strain [5] = test: In vitro C. parvum growth inhibition assay (Sporo-Glo staining, fluorescence microscopy count in infected HCT-8 cells); type: cell-based, Cryptosporidium parvum; conditions: for EC50: read-out: EC50 value
Protocol: The primary screening of compounds for C. parvum was performed as follows: HCT-8 cells were seeded in 96-well plates at a density of 2 × 10^4 cells/well and allowed to grow overnight. Before infecting cells, Cryptosporidium oocysts were excysted to sporozoites. 87 compounds were tested against C. parvum at a single concentration of 1 μM. Each compound was tested once. Infected HCT-8 cells and uninfected HCT-8 cells were used as positive and negative controls, respectively, in medium containing 0.1% DMSO. Nitazoxanide was used as a standard comparative drug. In vitro inhibition assays were carried out as previously described. Briefly, oocysts were suspended in 1 ml of 0.1% sodium hypochlorite in PBS, incubated for 5 min at 4°C, centrifuged for 10 min at 3000 rpm, and washed three times in PBS. The oocysts were then suspended in excystation solution consisting of 0.75% sodium taurocholate and 0.25% trypsin dissolved in 0.1 M phosphate buffer (with 93.4 mM K2HPO4 and 6.5 mM KH2PO4; pH 8.0) and incubated at 37°C for 1 h. The oocyst/sporozoite suspensions were then rinsed in 1 x PBS (with 137 mM NaCl, 2.7 mM KCl, 8 mM Na2HPO4, and 2 mM KH2PO4; pH 7.5) once more before being filtered through a 5-μm pore-size PVDF filter (Millipore, Burlington, MA, USA) with 5 ml syringe to remove the oocyst wall. HCT-8 cells were seeded in 96-well plates (Thermo Fisher Scientific Inc., MA, USA) and incubated overnight. The cells were then infected with C. parvum sporozoites (4 ×10^4 sporozoites/well) containing in RPMI-1640 medium for 3 h. After 3h inoculation, the non-infected parasite or debris were washed with new RPMI-1640 media. At this point, in RPMI-1640 medium containing 1 μM library compounds were added. Infected cells were incubated for an additional 45 h. Following incubation, the infected cells were fixed for 10 minutes in ice-cold 100% methanol at room temperature. Plates were then carefully rinsed 3 times with PBS. The parasite infected cells were then blocked with 1% bovine serum albumin (BSA) in PBS for 30 minutes and then stained with Sporo-Glo (an anti-Cryptosporidium polyclonal antibody) (Waterborne Environmental, Inc., VA, USA) protected from light for 1 h at room temperature. Finally, cells were washed twice with 1 x PBS-T (1 x PBS supplemented with 0.01% Tween). A Keyence BZ-II 9000 was used to capture the images (KEYENCE, Osaka, Japan). The plates were imaged with a HS all-in-one fluorescence microscope using a 20 x objective. The image output was imported into Microsoft excel for data organization and analyses. All C. parvum parasite in the well were counted.
For a second investigation, four selective hit compounds were used to determine the half-maximum inhibitory concentration (EC50). The parasites were treated with various doses of compounds (ranging from 0.008–1 μM). HCT-8 cells (2 × 10^4 cells/well) were grown for 24 h before being infected with 4 × 10^4 C. parvum sporozoites in 96-well plates. […] Sporo-Glo was used for C. parvum staining as described above. Fluorescence microscopy with a Keyence BZ-II 9000 imager was used to count all Cryptosporidium in the wells (KEYENCE, Osaka, Japan). EC50 vales were determined by analyzing dose-response curves made by GraphPad Prism (GraphPad Software, CA, USA).

C. parvum = test: Histopathological analysis and immunohistochemistry of ileum of C. parvum-infected mice; type: in vivo, Cryptosporidium parvum; set-up: key to severity of C. parvum infection in ileum, Score: -, no oocysts; 1+, mild focal infection; 2+, moderate multifocal infection; 3+, severe diffuse infection; conditions: HE and immunohistochemistry, most severe area, day 14, dose not stated
Protocol: as §1

Cryptosporidium parvum = conditions: cited from earlier work
[6] = initial dose-finding (S1 Table), 0.1 mg/kg BW, 1 mouse

In the case of `CC(=O)O[C@H]1C[C@]2(O)[C@@H]3CC[C@@H]4C[C@@H](O)CC[C@]4(C)[C@H]3CC[C@]2(C)[C@H]1c1ccc(=O)oc1` [Bufotalin], the CC50 at 48 h [1] is reported as 10.9 µM, the viability at 48 h, 1 µM ([1]; Host cell viability (%), HCT-8 cells, 48 h, 1 μM) is reported as greater than 95% and the “Host cell viability (%)” value (HCT-8 cells) is reported as 95.1%. For the same compound, the “No. of oocysts, Mean” value (C. parvum HNJ-1 strain [2]; 0.025 mg/kg BW oral) was 92.3, the “% reduction in oocyst shedding” value (C. parvum HNJ-1 strain [2]; 0.025 mg/kg BW oral) was 58.2% and the “No. of oocysts, Mean” value (C. parvum HNJ-1 strain [2]; 0.05 mg/kg BW oral) was 86.6. The “% reduction in oocyst shedding” value (C. parvum HNJ-1 strain [2]; 0.05 mg/kg BW oral) was 60.8%, the “No. of oocysts, Mean” value (C. parvum HNJ-1 strain [2]; 0.1 mg/kg BW oral) was 48.5 and the “% reduction in oocyst shedding” value (C. parvum HNJ-1 strain [2]; 0.1 mg/kg BW oral) was 78.1%. For the same compound, the “% of oocysts shedding” value (C. parvum HNJ-1 strain [2]; [6]) was 28.8%, the “% reduction in oocysts shedding” value (C. parvum HNJ-1 strain [2]; [6]) was 71.2% and the “body weight of treated infected mice” value [3] was “not significant”. For the same compound, the “histological findings in liver” value ([4]; HE stain, infected treated mice (S3 Fig)) was “inflammation and hepatocellular hypertrophy”, the EC50 (C. parvum HNJ-1 strain [5]; Cryptosporidium parvum, HCT-8, 45 h) was 0.0634 ± 0.0187 µM and the inhibition at 1 µM (C. parvum HNJ-1 strain [5]; Cryptosporidium parvum, HCT-8, 45 h, read-out: Parasite inhibition (%)) was 82.9%. For the same compound, the Selectivity index (C. parvum HNJ-1 strain [5]; ratio of CC50 (HCT-8) / EC50 (C. parvum)) was 172.3 and the “severity of C. parvum infection in ileum, Score” value (C. parvum) was 1+.

In the case of `CC(=O)Oc1ccccc1C(=O)Nc1ncc([N+](=O)[O-])s1` [Nitazoxanide], the “No. of oocysts, Mean” value (C. parvum HNJ-1 strain [2]; 100 mg/kg BW oral) is listed as 81.1, the IC50 (Cryptosporidium parvum; ref 30 (Bessoff et al., 2013), read-out: IC50 against Cryptosporidium parvum) is listed as ~3.7 µM and 3.7 µM and the EC50 (Cryptosporidium parvum; ref PMID: 22167242, PMID: 29341586, PMID: 30297368, read-out: range of EC50 value) is listed as 1.55 to 5.1 µM. For the same compound, the “histological findings in liver” value ([4]; mouse, in vivo) was “karyomegaly and hepatocellular hypertrophy”, the EC50 (C. parvum HNJ-1 strain [5]; Cryptosporidium parvum, HCT-8, C. parvum, dose-dependent curve of comparative drug (response to reviewers)) was 4.14 ± 0.54 µM and the “severity of C. parvum infection in ileum, Score” value (C. parvum) was 2+.
